# Literature values as cited in US5595896A, “Expression of heterologous genes in transgenic plants and plant cells using plant asparagine synthetase promoters” (New York University, priority 1993, dated 1997).
# Like-named read-outs stand apart in the source and are kept apart here. Numbered stars: 1 amine (or outer) side, 2 acyl side, 3 side chain; on linkers, the order of the positions; unused ones are H or OH. Bridge positions count the residues as written; N and C are the ends. Square brackets hold non-standard residues; d marks the D form. Peptide text beside a SMILES is read from it. I, II: the chains in the order shown. Actinocin(9to1) = Cc1c2oc3c(C)ccc(C(=O)[*:1])c3nc-2c(C(=O)[*:2])c(N)c1=O; NMeV = CN[CH](C(=O)O)C(C)C; Sar = CNCC(=O)O
# Experiments:
# [1] = test system: PLANT AS
# [2] = test system: GS; details: toxin produced by P. syringae, coinfected alfalfa plants
# [3] = test system: AS; details: actinomycin D treatment, cotyledons of germinating cotton seedlings
molecule,measurement,setting,value
2-hydroxyethyl-L-glutamine,Inhibition (%),"[1]; Glutamine analogues, 5 mM",31.1%
NC(=O)CCCC(N)C(=O)O (racemic) [DL-homoglutamine],Inhibition (%),"[1]; Glutamine analogues, 5 mM",42.4%
NC(=O)CCC(NC(=O)OCc1ccccc1)C(=O)O (racemic) [N-CBZ-DL-glutamine],Inhibition (%),"[1]; Glutamine analogues, 5 mM",30.5%
CC(C(N)=O)C(N)C(=O)O (racemic) [β-methyl-DL-asparagine],Inhibition (%),"[1]; Asparagine analogues, 2 mM",55.1%
NC(=O)[C@H](N)[C@H](N)C(=O)O (relative stereo) [meso-diaminosuccinamate],Inhibition (%),"[1]; Aspartate analogues, 2 mM",50.6%
N[C@@H](CS(N)(=O)=O)C(=O)O [2-amino-2-carboxy-L-ethanesulphonamide],Inhibition (%),"[1]; Asparagine analogues, 2 mM",42.5%
N[C@@H](CC(=O)CBr)C(=O)O [5-bromo-4-oxo-L-norvaline],Inhibition (%),"[1]; Aspartate analogues, 2 mM",49.5%
N[C@@H](CC(=O)CCl)C(=O)O [5-chloro-4-oxo-L-norvaline],Inhibition (%),"[1]; Aspartate analogues, 2 mM",42.1%
[N-]=[N+]=CC(=O)C[C@H](N)C(=O)O [5-diazo-4-oxo-L-norvaline],Inhibition (%),"[1]; Asparagine analogues, 2 mM",40.3%
NC(=O)CC[C@@H](N)C(=O)O [D-glutamine],Inhibition (%),"[1]; Glutamine analogues, 5 mM",14.8%
NC(=O)NC[C@H](N)C(=O)O [L-albizziine],Inhibition (%),"[1]; Glutamine analogues, 5 mM",85.2%
[N-]=[N+]=CC(=O)OC[C@H](N)C(=O)O [L-azaserine],Inhibition (%),"[1]; Glutamine analogues, 5 mM",97.5%
NC(=O)CC[C@H](N)C(N)=O [L-glutamate diamide],Inhibition (%),"[1]; Glutamine analogues, 5 mM",9.1%
CCOC(=O)CC[C@H](N)C(=O)O [L-glutamate-γ-ethyl ester],Inhibition (%),"[1]; Glutamine analogues, 5 mM",23.6%
COC(=O)CC[C@H](N)C(=O)O [L-glutamate-γ-methyl ester],Inhibition (%),"[1]; Glutamine analogues, 5 mM",27.2%
CS(=N)(=O)CC[C@H](N)C(=O)O (stereo partly drawn) [L-methionine-S-sulphoximine],Inhibition (%),[1],8.6%
CC(=O)N[C@@H](CCC(N)=O)C(=O)O [N-acetyl-L-glutamine],Inhibition (%),"[1]; Glutamine analogues, 5 mM",10.2%
CN[C@@H](CC(N)=O)C(=O)O [N-α-methyl-L-asparagine],Inhibition (%),"[1]; Asparagine analogues, 2 mM",38.8%
NC(=O)SC[C@H](N)C(=O)O [S-carbamoyl-L-cysteine],Inhibition (%),"[1]; Glutamine analogues, 5 mM",35.6%
N[C@@H](CCC1(O)CNC1=O)C(=O)O (stereo partly drawn) [Tabtoxinine β-lactam],GS activity inhibited by toxin,[2],severely inhibited
"Cc1c2oc3c(C)ccc(C(=O)NC4C(=O)NC(C(C)C)C(=O)N5CCCC5C(=O)N(C)CC(=O)N(C)C(C(C)C)C(=O)OC4C)c3nc-2c(C(=O)NC2C(=O)NC(C(C)C)C(=O)N3CCCC3C(=O)N(C)CC(=O)N(C)C(C(C)C)C(=O)OC2C)c(N)c1=O (centres unmarked) [actinomycin D] (I: TVP[Sar][NMeV] / II: TVP[Sar][NMeV]; ester I:1-I:C, II:1-II:C; linker I:N-II:N via Actinocin(9to1); configuration not given here)",induction of AS activity,[3],abolished
N[C@H](C(=O)O)[C@@H](O)C(=O)O [erythro β-hydroxy-L-aspartate],Inhibition (%),"[1]; Aspartate analogues, 2 mM",65.4%
C[C@@H](C(=O)O)[C@H](N)C(=O)O [erythro β-methyl-L-aspartate],Inhibition (%),"[1]; Aspartate analogues, 2 mM",51.4%
NC(=O)[C@H](O)[C@H](N)C(=O)O [erythro-β-hydroxy-L-asparagine],Inhibition (%),"[1]; Asparagine analogues, 2 mM",59.5%
NC(=O)[C@@H](O)[C@H](N)C(=O)O [threo β-hydroxy-L-asparagine],Inhibition (%),"[1]; Asparagine analogues, 2 mM",45.2%
C[C@H](C(=O)O)[C@H](N)C(=O)O [threo β-methyl-L-aspartate],Inhibition (%),"[1]; Aspartate analogues, 2 mM",58.4%
C=C(C[C@H](N)C(=O)O)C(N)=O [γ-methylene-L-glutamine],Inhibition (%),"[1]; Glutamine analogues, 5 mM",20.4%
N-ethyl-L-asparagine,Inhibition (%),"[1]; Asparagine analogues, 2 mM",47.2%
N-methyl-L-asparagine,Inhibition (%),"[1]; Asparagine analogues, 2 mM",57.6%
